System: Lysozyme
Assay: Inhibition of Maillard reaction: suppression of lysozyme dimer formation (lysozyme + fructose, SDS-PAGE)
Assay type: biochemical
Settings: inhibition ratio of test compound to aminoguanidine (positive control); lysozyme 10 mg/ml, fructose 100 mM, 0.2M sodium phosphate pH 7.4, 37° C., 3 days; dimer amount by SDS-PAGE
Method: Lysozyme and fructose were dissolved in a buffer solution of 0.2M sodium phosphate (pH 7.4) to respectively give concentrations of 10 mg/ml and 100 mM. After incubating at 37° C. for 3 days, a definite amount of the mixture was taken out and electrophoresed with the use of SDS-PAGE. After the completion of the electrophoresis, the gel was stained with 0.2% Coomassie Brilliant Blue R-250 and the amount of the dimer thus formed was determined.
Each of the test compounds was added before the initiation of the incubation and the effect of suppressing the formation of the dimer was examined at various concentrations, whereby the IC50 value was obtained. As a positive control, aminoguanidine, which is a known glycation inhibitor, was employed and the inhibition ratio of the test compound to aminoguanidine (IC50 of aminoguanidine/IC50 of test compound) was calculated.

Row | Molecule | IC50 of aminoguanidine/IC50 of test compound
1 | O=C1NC(=NNS(=O)(=O)c2ccc(Br)cc2)NC1Cc1ccc(OCc2ccccc2)cc1 (stereo not drawn) [Test compound 75] | 1.5
2 | CCOC(=O)CN1C(=O)C(CC(=O)O)SC1=NN=C(C)C (stereo not drawn) [Test compound 20, 5-Carboxymethyl-3-ethoxycarbonylmethyl-2-isopropylidenehydrazonothiazolidin-4-one] | 3.0
3 | CC(C)=NN=C1NC(=O)C(CC(C)C)N1 (stereo not drawn) [Test compound 67, 2-Isopropylidenehydrazono-5-(2-methylpropyl)imidazolidin-4-one] | 2.6
4 | CC(C)=NN=C1NC(=O)C(Cc2ccc(O)cc2)N1 (stereo not drawn) [Test compound 4, 5-(4-Hydroxybenzyl)-2-isopropylidenehydrazonoimidazolidin-4-one] | 4.8
5 | CC(C)=NN=C1NC(=O)C(CC(=O)NC2CCCCC2)S1 (stereo not drawn) [Test compound 18, 5-(N-cyclohexylcarbamoylmethyl)-2-isopropylidenehydrazonothiazolidin-4-one] | 1.5
6 | 5-[N-(2-carboxymethylphenyl)carbamoylmethyl]-2-isopropylidenehydrazonothiazolidin-4-one [Test compound 108] | 3.2
7 | 2-Cyclohexylmethylenehydrazono-5-(N-phenylcarbamoylmethyl)thiazolidin-4-one [Test compound 83] | 0.6
8 | CC(C)=NN=C1NC(=O)C(CC(=O)Nc2ccccc2)N1 (stereo not drawn) [Test compound 46, 2-Isopropylidenehydrazono-5-(N-phenylcarbamoylmethyl)imidazolidin-4-one] | 5.7
9 | COc1ccc(NC(=O)CC2SC(=NN=C(C)C)NC2=O)cc1OC (stereo not drawn) [Test compound 90, 5-[N-(3,4-dimethoxyphenyl)carbamoylmethyl]-2-isopropylidenehydrazonothiazolidin-4-one] | 42
10 | NN=C1NC(=O)C(CC(=O)Nc2ccccc2)S1 (stereo not drawn) [Test compound 81, 2-Hydrazono-5-(N-phenylcarbamoylmethyl)thiazolidin-4-one] | 0.8
11 | 5-(N-carboxymethylcarbamoylmethyl)-2-isopropylidenehydrazonothiazolidin-4- one [Test compound 47] | 1.7
12 | CC(C)=NN=C1NC(=O)C(Cc2ccc(OCc3cccnc3)cc2)S1 (stereo not drawn) [Test compound 48, 2-Isopropylidenehydrazono-5-[4-(3-pyridylmethoxy)benzyl]thiazolidin-4-one] | 11.0
13 | CCOC(=O)c1ccc(NC(=O)CC2SC(=NN=C(C)C)NC2=O)cc1 (stereo not drawn) [Test compound 15, 5-[N-(4-ethoxycarbonylphenyl)carbamoylmethyl]-2-isopropylidenehydrazonothiazolidin-4-one] | 1.2
14 | O=C1CN2C(=NN1)NC(=O)C2COCc1ccccc1 (stereo not drawn) [Test compound 29, 9-Benzyloxymethyl-1,4,5,7-tetraazabicyclo[4.3.0]nonan-5-ene-3,8-dione] | 0.6
15 | COc1ccc(NC(=O)CC2SC(=NN=C(C)C)NC2=O)c(C)c1 (stereo not drawn) [Test compound 116, 2-Isopropylidenehydrazono-5-[N-(4-methoxy-2-methylphenyl)carbamoylmethyl]thiazolidin-4-one] | 7.3
16 | CC(C)=NN=C1NC(=O)C(c2ccc(O)cc2)N1 (stereo not drawn) [Test compound 7, 5-(4-Hydroxyphenyl)-2-isopropylidenehydrazonoimidazolidin-4-one] | 1.1
17 | CC(C)=NN=C1NC(=O)C(CC(=O)Nc2ccc(OCc3ccccc3)cc2)S1 (stereo not drawn) [Test compound 50, 5-[N-(4-benzyloxyphenyl)carbamoylmethyl]-2-isopropylidenehydrazonothiazolidin-4-one] | 0.3
18 | CSc1ccc(CC2SC(=NN=C(C)C)NC2=O)cc1 (stereo not drawn) [Test compound 11, 2-isopropylidenehydrazono-5-(4-methylthiobenzyl)thiazolidin-4-one] | 1.2
19 | CC(C)=NN=C1NC(=O)C(Cc2ccc(O)c(O)c2)N1 (stereo not drawn) [Test compound 42, 5-(3,4-Dihydroxybenzyl)-2-isopropylidenehydrazonoimidazolidin-4-one] | 78.9
20 | CC(C)=NN=C1NC(=O)C(CC(=O)Nc2ccc(F)cc2C(=O)O)S1 (stereo not drawn) [Test compound 117, 5-[N-(2-carboxy-4-fluorophenyl)carbamoylmethyl]-2-isopropylidenehydrazonothiazolidin-4-one] | 7.0
21 | CC(C)=NN=C1NC(=O)C(CC(=O)NCc2ccccc2)S1 (stereo not drawn) [Test compound 30, 5-(N-Benzylcarbamoylmethyl)-2-isopropylidenehydrazonothiazolidin-4-one] | 3.5

Row | Molecule | IC50 of aminoguanidine/IC50 of test compound
22 | CC(C)=NN=C1NC(=O)C(CC(=O)Nc2c(C)cccc2C)S1 (stereo not drawn) [Test compound 112, 5-[N-(2,6-dimethylphenyl)carbamoylmethyl]-2-isopropylidenehydrazonothiazolidin-4-one] | 6.4
23 | CC(C)=NN=C1NC(=O)C(Cc2ccc(OCc3cccs3)cc2)N1 (stereo not drawn) [Test compound 36, 2-Isopropylidenehydrazono-5-[4-(2-thienylmethoxy)benzyl]imidazolidin-4-one] | 3.5
24 | 2-Isopropylidenehydrazono-5-[N-(2-methoxycarbonyl-4-methylphenyl)carbamoylmethyl]imidazolidin-4-one [Test compound 96] | 3.9
25 | CC(C)=NN=C1NC(=O)C(Cc2ccc(Sc3ccccc3)cc2)N1 (stereo not drawn) [Test compound 10, 2-Isopropylidenehydrazono-5-(4-phenylthiobenzyl)imidazolidin-4-one] | 5.4
26 | 5-[N-(1-carboxy-3-methylbutyl)carbamoylmethyl]-2-isopropylidenehydrazonothiazolidin-4-one [Test compound 103] | 1.7
27 | 2-Isopropylidenehydrazono-5-[N-(3,4,5-trichlorophenyl)carbamoylmethyl]thiazolidin-4-one [Test compound 57] | 0.8
28 | 5-{N-[1-carboxy-2-(4-benzyloxyphenyl)ethyl]carbamoylmethyl}-2-isopropylidenehydrazonothiazolidin-4-one [Test compound 101] | 1.5
29 | CC(C)=NN=C1NC(=O)C(Cc2ccc(OCc3ccccc3)cc2)N1 (stereo not drawn) [Test compound 1, 5-(4-Benzyloxybenzyl)-2-isopropylidenehydrazonoimidazolidin-4-one] | 3.6
30 | CC(C)=NN=C1NC(=O)C(CC(=O)NC(C)c2ccccc2)S1 (stereo not drawn) [Test compound 72, 2-Isopropylidenehydrazono-5-[N-(1-phenylethyl)carbamoylmethyl]thiazolidin-4-one] | 7.0
31 | CC(C)=NN=C1NC(=O)C(Cc2ccc(OCc3c(Cl)cccc3Cl)cc2)N1 (stereo not drawn) [Test compound 5, 5-[4-(2,6-Dichlorobenzyloxy)benzyl]-2-isopropylidenehydrazonoimidazolidin-4-one] | 8.0
32 | 2-Isopropylidenehydrazono-5(S)-(N-phenylcarbamoylmethyl)thiazolidin-4-one [Test compound 110] | 3.1
33 | 2-Isopropylidenehydrazino-4-methylthiazole [Test compound 23] | 3.5
34 | CC(C)=NN=C1NC(=O)C(Cc2c[nH]c3ccccc23)N1 (stereo not drawn) [Test compound 40, 5-(3-Indolylmethyl)-2-isopropylidenehydrazonoimidazolidin-4-one] | 2.6
35 | CC(C)=NN=C1NC(=O)C(Cc2ccccc2)N1 (stereo not drawn) [Test compound 3, 5-Benzyl-2-isopropylidenehydrazonoimidazolidin-4-one] | 1.6
36 | 5-[N-(2-carboxyphenyl)carbamoylmethyl]-2-isopropylidenehydrazonothiazolidin-4-one [Test compound 92] | 0.94
37 | 2-Isopropylidenehydrazono-5-(N-morpholinocarbamoylmethyl)thiazolidin-4-one [Test compound 69] | 1.1
38 | CCOC(=O)CN1C(=O)C(CC(=O)Nc2ccccc2)SC1=NN=C(C)C (stereo not drawn) [Test compound 61, 3-Ethoxycarbonylmethyl-5-(N-phenylcarbamoylmethyl)-2-isopropylidenehydrazonothiazolin-4-one] | 0.91
39 | CC(C)=NN=C1NC(=O)C(CC(=O)N[C@@H](Cc2c[nH]c3ccccc23)C(=O)O)S1 (stereo partly drawn) [Test compound 104, 5-{N-[1-carboxy-2-(3-indolyl)ethyl]carbamoylmethyl}-2-isopropylidenehydrazonothiazolidin-4-one] | 0.7
40 | CC(C)=NN=C1NC(=O)C(CCCCNC(=O)OCc2ccccc2)N1 (stereo not drawn) [Test compound 62, 5-(4-Benzyloxycarbonylaminobutyl)-2-isopropylidenehydrazonoimidazolidin-4-one] | 57
41 | COc1ccc(NC(=O)Cc2csc(NN=C(C)C)n2)cc1OC [Test compound 94, 4-[N-(3,4-dimethoxyphenyl)carbamoylmethyl]-2-isopropylidenehydrazinothiazole] | 33.7
42 | 2-(4-Acetoamidobenzenesulfonohydrazono)-5-(4-benzyloxybenzyl)imidazolidin- 4-one [Test compound 76] | 7.9

From US5677322A, “Maillard reaction inhibitor” (Otsuka Pharmaceutical Co., Ltd., priority 1993, dated 1997)
